The text below walks through data of US20090118286A1, “Heterobicyclic Acrylamides” (Bayer Cropscience AG, priority 2005, published 2009).

Structures are written as SMILES.

A short description of the first data set: log P determination by HPLC (EEC Directive 79/831 Annex V.A8, gradient method). Format: physicochemical.
Conditions: not given
On to `COCC(C)NC(=O)/C=C/c1c(-c2ccccc2Cl)nc2sc(C(F)(F)F)nn12` (racemic) [Example 0169], for which the “Physical data (logP)” value is recorded as 2.99.

On to `CC(NC(=O)/C=C/c1c(-c2ccccc2Cl)nc2sc(C(F)(F)F)nn12)c1ccccc1` (racemic) [Example 0189], for which the “Physical data (logP)” value was found to be 3.81.

Regarding `CC(COc1ccccc1)NC(=O)/C=C/c1c(-c2ccccc2Cl)nc2sc(C(F)(F)F)nn12` (racemic) [Example 0194], the “Physical data (logP)” value was found to be 4.03.

For the molecule `CC(ONC(=O)/C=C/c1c(-c2ccccc2Cl)nc2sc(C(F)(F)F)nn12)c1ccccc1` (racemic) [Example 0213], the “Physical data (logP)” value stood at 3.72.

Turning to `COCC(C)NC(=O)/C=C/c1c(-c2ccccc2C)nc2sc(C(F)(F)F)nn12` (racemic) [Example 0240], the “Physical data: log P” value is on record as 3.07.

For the molecule `CC(NC(=O)/C=C/c1c(-c2sccc2Cl)nc2sc(C(F)(F)F)nn12)C(F)(F)F` (racemic) [Example 0922], the “Physical data: logP” value is given as 3.65.

As for `CC(NC(=O)/C=C/c1c(-c2ccc(Cl)nc2)nc2sc(C(F)(F)F)nn12)C(F)(F)F` (racemic) [Example 0935], the “Physical data: logP” value was 3.32.

With `CC(NC(=O)/C=C/c1c(-c2cccnc2Cl)nc2sc(C(F)(F)F)nn12)C(F)(F)F` (racemic) [Example 0948], the “Physical data: logP” value stood at 2.76.

For `CC(NC(=O)/C=C/c1c(-c2ccccc2Cl)nc2sc(C(F)(F)C(F)(F)F)nn12)C(F)(F)F` (racemic) [Example 0961], the “Physical data: logP” value was determined as 4.07.

In the case of `CC(NC(=O)/C=C/c1c(-c2ccc(F)cc2Cl)nc2sc(C(F)(F)C(F)(F)F)nn12)C(F)(F)F` (racemic) [Example 0974], the “Physical data: logP” value turned out to be 4.19.

In the case of `CC(NC(=O)/C=C/c1c(-c2nccs2)nc2sc(C(F)(F)C(F)(F)F)nn12)C(F)(F)F` (racemic) [Example 0987], the “Physical data: logP” value came out at 3.81.

Consider `CC(NC(=O)/C=C/c1c(-c2ccccc2Cl)nc2sc(C(F)(F)F)nn12)C(F)(F)F` (single isomer, unassigned) [Example 0184], for which the “Physical data (logP)” value came out at 3.63.

As to `CC(NC(=O)/C=C/c1c(-c2ccccc2Cl)nc2sc(C(F)(F)F)nn12)C(F)(F)F` (single isomer, unassigned) [Example 0185], the “Physical data (logP)” value is on record as 3.77.

As for `NC(=O)/C=C/c1c(-c2ccc(Cl)cc2)nc2sc(C(F)(F)F)nn12` [Example 0004], the “Physical data (logP)” value is listed as 2.62.

For the molecule `CNC(=O)/C=C/c1c(-c2ccc(Cl)cc2)nc2sc(C(F)(F)F)nn12` [Example 0005], the “Physical data (logP)” value is on record as 2.88.

In the case of `CCNC(=O)/C=C/c1c(-c2ccc(Cl)cc2)nc2sc(C(F)(F)F)nn12` [Example 0006], the “Physical data (logP)” value is listed as 3.25.

As to `CC(C)NC(=O)/C=C/c1c(-c2ccc(Cl)cc2)nc2sc(C(F)(F)F)nn12` [Example 0007], the “Physical data (logP)” value worked out at 3.61.

Turning to `CC(C)(C)NC(=O)/C=C/c1c(-c2ccc(Cl)cc2)nc2sc(C(F)(F)F)nn12` [Example 0009], the “Physical data (logP)” value was 4.23.

On to `O=C(/C=C/c1c(-c2ccc(Cl)cc2)nc2sc(C(F)(F)F)nn12)NC1CC1` [Example 0011], for which the “Physical data (logP)” value is given as 3.31.

Turning to `O=C(/C=C/c1c(-c2ccc(Cl)cc2)nc2sc(C(F)(F)F)nn12)NC1CCC1` [Example 0012], the “Physical data (logP)” value turned out to be 3.81.

Turning to `O=C(/C=C/c1c(-c2ccc(Cl)cc2)nc2sc(C(F)(F)F)nn12)NC1CCCC1` [Example 013], the “Physical data (logP)” value was 4.03.

Take `O=C(/C=C/c1c(-c2ccc(Cl)cc2)nc2sc(C(F)(F)F)nn12)NC1CCCCC1` [Example 0014]: the “Physical data (logP)” value amounted to 4.37.

As to `O=C(/C=C/c1c(-c2ccc(Cl)cc2)nc2sc(C(F)(F)F)nn12)NCC1CC1` [Example 0015], the “Physical data (logP)” value was 3.72.

As to `CCC(C)NC(=O)/C=C/c1c(-c2ccc(Cl)cc2)nc2sc(C(F)(F)F)nn12` (stereo not drawn) [Example 0016], the “Physical data (logP)” value is listed as 3.94.

As to `CCCC(C)NC(=O)/C=C/c1c(-c2ccc(Cl)cc2)nc2sc(C(F)(F)F)nn12` (stereo not drawn) [Example 0017], the “Physical data (logP)” value is recorded as 4.32.

Turning to `COCC(C)NC(=O)/C=C/c1c(-c2ccc(Cl)cc2)nc2sc(C(F)(F)F)nn12` (stereo not drawn) [Example 0018], the “Physical data (logP)” value is given as 4.27.

Take `CC(C)C(C)NC(=O)/C=C/c1c(-c2ccc(Cl)cc2)nc2sc(C(F)(F)F)nn12` (stereo not drawn) [Example 0023]: the “Physical data (logP)” value is recorded as 4.25.

For the molecule `CC(NC(=O)/C=C/c1c(-c2ccc(Cl)cc2)nc2sc(C(F)(F)F)nn12)c1ccccc1` (stereo not drawn) [Example 0038], the “Physical data (logP)” value was determined as 4.32.

`CCC(NC(=O)/C=C/c1c(-c2ccc(Cl)cc2)nc2sc(C(F)(F)F)nn12)c1ccccc1` (stereo not drawn) [Example 0039]: the “Physical data (logP)” value was determined as 4.56.

Consider `CC(COc1ccccc1)NC(=O)/C=C/c1c(-c2ccc(Cl)cc2)nc2sc(C(F)(F)F)nn12` (stereo not drawn) [Example 0043], for which the “Physical data (logP)” value came out at 4.51.

For `CCC(NC(=O)/C=C/c1c(-c2ccc(Cl)cc2)nc2sc(C(F)(F)F)nn12)C1CCCCC1` (stereo not drawn) [Example 0045], the “Physical data (logP)” value amounted to 5.31.

On to `CC(NC(=O)/C=C/c1c(-c2ccc(Cl)cc2)nc2sc(C(F)(F)F)nn12)c1ccccn1` (stereo not drawn) [Example 0052], for which the “Physical data (logP)” value is 2.77.

Regarding `O=C(/C=C/c1c(-c2ccc(Cl)cc2)nc2sc(C(F)(F)F)nn12)NOCC1CC1` [Example 0060], the “Physical data (logP)” value came out at 3.59.

Consider `CC(ONC(=O)/C=C/c1c(-c2ccc(Cl)cc2)nc2sc(C(F)(F)F)nn12)c1ccccc1` (stereo not drawn) [Example 0062], for which the “Physical data (logP)” value is listed as 4.18.

On to `CCC(CC)NC(=O)/C=C/c1c(-c2ccc(Cl)cc2)nc2sc(C(F)(F)F)nn12` [Example 0064], for which the “Physical data (logP)” value is on record as 4.23.

With `CN(C)C(=O)/C=C/c1c(-c2ccc(Cl)cc2)nc2sc(C(F)(F)F)nn12` [Example 0065], the “Physical data (logP)” value turned out to be 3.42.

On to `CCN(CC)C(=O)/C=C/c1c(-c2ccc(Cl)cc2)nc2sc(C(F)(F)F)nn12` [Example 0070], for which the “Physical data (logP)” value was determined as 4.16.

Regarding `O=C(/C=C/c1c(-c2ccc(Cl)cc2)nc2sc(C(F)(F)F)nn12)N1CCCCC1` [Example 0071], the “Physical data (logP)” value amounted to 4.31.

Regarding `O=C(/C=C/c1c(-c2ccc(Cl)cc2)nc2sc(C(F)(F)F)nn12)N1CCOCC1` [Example 0072], the “Physical data (logP)” value stood at 3.27.

As for `CC(C)NC(=O)/C=C/c1c(-c2cccc(Cl)c2)nc2sc(C(F)(F)F)nn12` [Example 0078], the “Physical data (logP)” value is reported as 3.67.

In the case of `CC(C)(C)NC(=O)/C=C/c1c(-c2cccc(Cl)c2)nc2sc(C(F)(F)F)nn12` [Example 0080], the “Physical data (logP)” value is on record as 4.27.

`O=C(/C=C/c1c(-c2cccc(Cl)c2)nc2sc(C(F)(F)F)nn12)NC1CC1` [Example 0082]: the “Physical data (logP)” value is given as 3.31.

Consider `O=C(/C=C/c1c(-c2cccc(Cl)c2)nc2sc(C(F)(F)F)nn12)NC1CCC1` [Example 0083], for which the “Physical data (logP)” value stood at 3.85.

Take `O=C(/C=C/c1c(-c2cccc(Cl)c2)nc2sc(C(F)(F)F)nn12)NC1CCCC1` [Example 0084]: the “Physical data (logP)” value came to 4.13.

With `O=C(/C=C/c1c(-c2cccc(Cl)c2)nc2sc(C(F)(F)F)nn12)NC1CCCCC1` [Example 0085], the “Physical data (logP)” value was 4.46.

As for `O=C(/C=C/c1c(-c2cccc(Cl)c2)nc2sc(C(F)(F)F)nn12)NCC1CC1` [Example 0086], the “Physical data (logP)” value was determined as 3.81.

For `CCC(C)NC(=O)/C=C/c1c(-c2cccc(Cl)c2)nc2sc(C(F)(F)F)nn12` (stereo not drawn) [Example 0087], the “Physical data (logP)” value amounted to 3.99.

For the molecule `CCCC(C)NC(=O)/C=C/c1c(-c2cccc(Cl)c2)nc2sc(C(F)(F)F)nn12` (stereo not drawn) [Example 0088], the “Physical data (logP)” value came to 4.37.

Consider `COCC(C)NC(=O)/C=C/c1c(-c2cccc(Cl)c2)nc2sc(C(F)(F)F)nn12` (stereo not drawn) [Example 0089], for which the “Physical data (logP)” value was found to be 3.46.

`CC(C)C(C)NC(=O)/C=C/c1c(-c2cccc(Cl)c2)nc2sc(C(F)(F)F)nn12` (stereo not drawn) [Example 0094]: the “Physical data (logP)” value worked out at 4.32.

Consider `CC(NC(=O)/C=C/c1c(-c2cccc(Cl)c2)nc2sc(C(F)(F)F)nn12)c1ccccc1` (stereo not drawn) [Example 0108], for which the “Physical data (logP)” value is 4.37.

For `CC(COc1ccccc1)NC(=O)/C=C/c1c(-c2cccc(Cl)c2)nc2sc(C(F)(F)F)nn12` (stereo not drawn) [Example 0113], the “Physical data (logP)” value is 4.56.

For `CC(NC(=O)/C=C/c1c(-c2cccc(Cl)c2)nc2sc(C(F)(F)F)nn12)c1cccnc1` (stereo not drawn) [Example 0124], the “Physical data (logP)” value came to 2.8.

In the case of `O=C(/C=C/c1c(-c2cccc(Cl)c2)nc2sc(C(F)(F)F)nn12)NOCC1CC1` [Example 0130], the “Physical data (logP)” value was 3.63.

Regarding `CC(ONC(=O)/C=C/c1c(-c2cccc(Cl)c2)nc2sc(C(F)(F)F)nn12)c1ccccc1` (stereo not drawn) [Example 0132], the “Physical data (logP)” value is listed as 4.23.

As for `CCC(CC)NC(=O)/C=C/c1c(-c2cccc(Cl)c2)nc2sc(C(F)(F)F)nn12` [Example 0134], the “Physical data (logP)” value is 4.27.

As for `C=CCN(C)C(=O)/C=C/c1c(-c2cccc(Cl)c2)nc2sc(C(F)(F)F)nn12` [Example 0137], the “Physical data (logP)” value turned out to be 4.0.

The same data set, now with this note: HPLC gradient method, acetonitrile/0.1% strength aqueous phosphoric acid or formic acid; preparation examples; read-out: log P.
As to `CSC[C@H](C)NC(=O)/C=C/c1c(-c2ccc(Cl)cc2Cl)nc2sc(C(F)(F)F)nn12` [Example 0001, (2E)-3-[6-(2,4-Dichlorophenyl)-2-(trifluoromethyl)imidazo[2,1-b][1,3,4]thiadiazol-5-yl]-N-[(1S)-1-methyl-2-(methylthio)ethyl]acrylamide], the chromatographic logP was determined as 3.91.

Regarding `C[C@@H](C[S+](C)[O-])NC(=O)/C=C/c1c(-c2ccc(Cl)cc2Cl)nc2sc(C(F)(F)F)nn12` (stereo partly drawn) [Example 0002, (2E)-3-[6-(2,4-Dichlorophenyl)-2-(trifluoromethyl)imidazo[2,1-b][1,3,4]thiadiazol-5-yl]-N-[(1S)-1-methyl-2-(methylsulphinyl)ethyl]acrylamide], the chromatographic logP was 2.48.

For the molecule `C[C@@H](CS(C)(=O)=O)NC(=O)/C=C/c1c(-c2ccc(Cl)cc2Cl)nc2sc(C(F)(F)F)nn12` [Example 0003, (2E)-3-[6-(2,4-Dichlorophenyl)-2-(trifluoromethyl)imidazo[2,1-b][1,3,4]thiadiazol-5-yl]-N-[(1S)-1-methyl-2-(methylsulphonyl)ethyl]acrylamide], the chromatographic logP is 3.03.
